In patent US12281108B2, “Pyrrolidinone derivatives as formyl peptide 2 receptor agonists” (BRISTOL-MYERS SQUIBB COMPANY, priority 2018, dated 2025) one finds EC50 data, which are given here for eleven molecules.

One assay addresses T1, human FPR2 receptors (Homo sapiens, UniProt P25090).
T1 sequence (P25090 1-351): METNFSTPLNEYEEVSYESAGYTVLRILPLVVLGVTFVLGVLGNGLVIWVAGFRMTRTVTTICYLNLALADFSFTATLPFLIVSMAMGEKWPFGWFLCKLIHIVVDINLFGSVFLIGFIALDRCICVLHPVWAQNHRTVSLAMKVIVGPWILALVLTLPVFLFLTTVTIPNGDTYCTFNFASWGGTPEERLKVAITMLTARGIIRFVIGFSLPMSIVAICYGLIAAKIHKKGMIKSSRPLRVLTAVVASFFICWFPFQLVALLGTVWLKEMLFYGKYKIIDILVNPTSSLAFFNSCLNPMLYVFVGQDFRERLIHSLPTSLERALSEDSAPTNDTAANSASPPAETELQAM
The assay is described as follows: FPR2 cAMP assay in CHO cells overexpressing human FPR2 (HTRF). The class given is cell-based. The text has this: (§1) N-formyl peptide receptors (FPRs) are a family of chemo attractant receptors that facilitate leukocyte response during inflammation. FPRs belong to the seven-transmembrane G protein-coupled receptor superfamily and are linked to inhibitory G-proteins (Gi). Three family members (FPR1, FPR2 and FPR3) have been identified in humans and are predominantly found in myeloid cells with varied distribution and have also been reported in multiple organs and tissues. After agonist binding, the FPRs activate a multitude of physiological pathways, such as intra cellular signaling transduction, Ca^2+ mobilization and transcription. The family interacts with a diverse set of ligands that includes proteins, polypeptides and fatty acid metabolites which activate both pro-inflammatory and pro-resolution downstream responses. FPR2 and FPR1 Cyclic Adenosine Monophosphate (cAMP) Assays were used to measure the in vitro activity of the compounds disclosed in this application.
FPR2 and FPR1 Cyclic Adenosine Monophosphate (cAMP) Assays. A mixture of forskolin (5 μM final for FPR2 or 10 μM final for FPR1) and IBMX (200 μM final) were added to 384-well Proxiplates (Perkin-Elmer) pre-dotted with test compounds in DMSO (1% final) at final concentrations in the range of 0.020 nM to 100 μM. Chinese Hamster Ovary cells (CHO) overexpressing human FPR1 or human FPR2 receptors were cultured in F-12 (Ham's) medium supplemented with 10% qualified FBS, 250 μg/ml zeocin and 300 μg/ml hygromycin (Life Technologies). Reactions were initiated by adding 2,000 human FPR2 cells per well or 4,000 human FPR1 cells per well in Dulbecco's PBS (with calcium and magnesium) (Life Technologies) supplemented with 0.1% BSA (Perkin-Elmer). The reaction mixtures were incubated for 30 min at room temperature. The level of intracellular cAMP was determined using the HTRF HiRange cAMP assay reagent kit (Cisbio) according to manufacturer's instruction. Solutions of cryptate conjugated anti-cAMP and d2 flurorophore-labelled cAMP were made in a supplied lysis buffer separately. Upon completion of the reaction, the cells were lysed with equal volume of the d2-cAMP solution and anti-cAMP solution. After a 1-h room temperature incubation, time-resolved fluorescence intensity was measured using the Envision (Perkin-Elmer) at 400 nm excitation and dual emission at 590 nm and 665 nm. A calibration curve was constructed with an external cAMP standard at concentrations ranging from 1 μM to 0.1 pM by plotting the fluorescent intensity ratio from 665 nm emission to the intensity from the 590 nm emission against cAMP concentrations. The potency and activity of a compound to inhibit cAMP production was then determined by fitting to a 4-parametric logistic equation from a plot of cAMP level versus compound concentrations.
A general note: Cyclic AMP is a second messenger, typically raised through Gs and lowered through Gi signalling.

The target of the next assay is T2, human FPR1 receptors (Homo sapiens, UniProt P21462).
T2 sequence (P21462 1-350): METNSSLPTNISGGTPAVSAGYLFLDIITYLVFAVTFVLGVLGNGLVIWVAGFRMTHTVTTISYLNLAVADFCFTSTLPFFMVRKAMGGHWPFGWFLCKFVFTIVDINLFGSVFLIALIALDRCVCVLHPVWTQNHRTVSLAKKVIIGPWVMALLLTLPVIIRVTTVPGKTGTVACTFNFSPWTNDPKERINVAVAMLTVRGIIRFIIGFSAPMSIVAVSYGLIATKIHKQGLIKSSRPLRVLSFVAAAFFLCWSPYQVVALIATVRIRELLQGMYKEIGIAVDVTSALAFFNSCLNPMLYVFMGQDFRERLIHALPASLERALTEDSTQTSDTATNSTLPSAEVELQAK
The assay is described as follows: FPR1 cAMP assay in CHO cells overexpressing human FPR1 (HTRF). The class given is cell-based. Conditions: forskolin 10 μM, inhibition of cAMP production, read-out: hFPR1 cAMP EC50.
Text: as §1
FPR2 and FPR1 Cyclic Adenosine Monophosphate (cAMP) Assays. A mixture of forskolin (5 μM final for FPR2 or 10 μM final for FPR1) and IBMX (200 μM final) were added to 384-well Proxiplates (Perkin-Elmer) pre-dotted with test compounds in DMSO (1% final) at final concentrations in the range of 0.020 nM to 100 μM. Chinese Hamster Ovary cells (CHO) overexpressing human FPR1 or human FPR2 receptors were cultured in F-12 (Ham's) medium supplemented with 10% qualified FBS, 250 μg/ml zeocin and 300 μg/ml hygromycin (Life Technologies). […] The level of intracellular cAMP was determined using the HTRF HiRange cAMP assay reagent kit (Cisbio) according to manufacturer's instruction. […] After a 1-h room temperature incubation, time-resolved fluorescence intensity was measured using the Envision (Perkin-Elmer) at 400 nm excitation and dual emission at 590 nm and 665 nm. […] The potency and activity of a compound to inhibit cAMP production was then determined by fitting to a 4-parametric logistic equation from a plot of cAMP level versus compound concentrations.

[1] abbreviates: CHO cells overexpressing human FPR2, forskolin 5 μM, inhibition of cAMP production, read-out: hFPR2 cAMP2 EC50.
The mark [2] stands for this setting: hFPR2 assay, potency bins, read-out: hFPR2 agonist activity EC50.

The structures appear in SMILES notation. Like-named read-outs stand apart in the source and are kept apart here.

A word on the EC50: it is the concentration needed to bring the measured effect to its halfway point. As to `COc1cc(F)c([C@@H]2CNC(=O)[C@H]2Nc2nnc(-c3ccc(SC(F)(F)F)cc3)o2)c(F)c1` [Example 18, (3S,4R)-4-(2,6-difluoro-4-methoxyphenyl)-3-[(5-{4-[(trifluoromethyl)sulfanyl]phenyl}-1,3,4-oxadiazol-2-yl)amino]pyrrolidin-2-one], the EC50 turned out to be 6.7 nM on human FPR2 receptors (setting [1]) and 160 nM on human FPR1 receptors.
In the case of `COc1cc(F)c([C@@H]2CNC(=O)[C@H]2Nc2cc(-c3ccc(C(F)F)cc3)on2)c(F)c1` [Example 22, (3S,4R)-4-(2,6-difluoro-4-methoxyphenyl)-3-({5-[4-(difluoromethyl)phenyl]-1,2-oxazol-3-yl}amino)pyrrolidin-2-one], the figures for the EC50 at human FPR2 receptors (setting [1]) and at human FPR1 receptors were 890 nM and 2900 nM, respectively.
`COc1cc(F)c([C@@H]2CNC(=O)[C@H]2Nc2nnc(-c3ccc(Oc4ccc(C(F)(F)F)nc4)cc3)o2)c(F)c1` [Example 58, (3S,4R)-4-(2,6-difluoro-4-methoxyphenyl)-3-{[5-(4-{[6-(trifluoromethyl)pyridin-3-yl]oxy}phenyl)-1,3,4-oxadiazol-2-yl]amino}pyrrolidin-2-one]: the values for the EC50 on human FPR2 receptors (setting [1]) and on human FPR1 receptors were 71 nM and 870 nM, respectively.
`COc1cc(F)c([C@@H]2CNC(=O)[C@H]2Nc2nnc(-c3ccc(Oc4ncccc4F)cc3)o2)c(F)c1` [Example 61, (3S,4R)-4-(2,6-difluoro-4-methoxyphenyl)-3-[(5-{4-[(3-fluoropyridin-2-yl)oxy]phenyl}-1,3,4-oxadiazol-2-yl)amino]pyrrolidin-2-one]: the EC50 at human FPR2 receptors (setting [2]) was in the range of 40 to 150 nM.
Same read-out and setting: then `COc1cc(F)c([C@@H]2CNC(=O)[C@H]2Nc2nnc(-c3ccc(Oc4cc(OC)ncn4)cc3)o2)c(F)c1` [Example 62, (3S,4R)-4-(2,6-difluoro-4-methoxyphenyl)-3-[(5-{4-[(6-methoxypyrimidin-4-yl)oxy]phenyl}-1,3,4-oxadiazol-2-yl)amino]pyrrolidin-2-one], with 40 to 150 nM; and `COc1cc(F)c([C@@H]2CNC(=O)[C@H]2Nc2nnc(-c3ccc(Oc4cncc(C)n4)cc3)o2)c(F)c1` [Example 63, (3S,4R)-4-(2,6-difluoro-4-methoxyphenyl)-3-[(5-{4-[(6-methylpyrazin-2-yl)oxy]phenyl}-1,3,4-oxadiazol-2-yl)amino]pyrrolidin-2-one], with 40 to 150 nM.
Consider `COc1cc(F)c([C@@H]2CNC(=O)[C@H]2Nc2nnc(-c3ccc(Oc4cccc(F)n4)cc3)o2)c(F)c1` [Example 64, (3S,4R)-4-(2,6-difluoro-4-methoxyphenyl)-3-[(5-{4-[(6-fluoropyridin-2-yl)oxy]phenyl}-1,3,4-oxadiazol-2-yl)amino]pyrrolidin-2-one], for which, at human FPR2 receptors (setting [2]), the EC50 was at most 40 nM.
Take `COc1cc(F)c([C@@H]2CNC(=O)[C@H]2Nc2nnc(-c3ccc(Oc4ccc(F)cn4)cc3)o2)c(F)c1` [Example 65, (3S,4R)-4-(2,6-difluoro-4-methoxyphenyl)-3-[(5-{4-[(5-fluoropyridin-2-yl)oxy]phenyl}-1,3,4-oxadiazol-2-yl)amino]pyrrolidin-2-one]: the EC50 at human FPR2 receptors (setting [2]) was in the range of 40 to 150 nM.
For `COc1cc(F)c([C@@H]2CNC(=O)[C@H]2Nc2nnc(-c3ccc(Oc4ncccc4C#N)cc3)o2)c(F)c1` [Example 66, 2-[4-(5-{[(3S,4R)-4-(2,6-difluoro-4-methoxyphenyl)-2-oxopyrrolidin-3-yl]amino}-1,3,4-oxadiazol-2-yl)phenoxy]pyridine-3-carbonitrile], the EC50 at human FPR2 receptors (setting [2]) lay within 40 to 150 nM.
Same read-out and setting: then `COc1cc(F)c([C@@H]2CNC(=O)[C@H]2Nc2nnc(-c3ccc(Oc4cccc(OC)n4)cc3)o2)c(F)c1` [Example 67, (3S,4R)-4-(2,6-difluoro-4-methoxyphenyl)-3-[(5-{4-[(6-methoxypyridin-2-yl)oxy]phenyl}-1,3,4-oxadiazol-2-yl)amino]pyrrolidin-2-one], with 150 to 1000 nM; and `COc1cc(F)c([C@@H]2CNC(=O)[C@H]2Nc2nnc(-c3ccc(Oc4cc(Cl)ccn4)cc3)o2)c(F)c1` [Example 68, (3S,4R)-3-[(5-{4-[(4-chloropyridin-2-yl)oxy]phenyl}-1,3,4-oxadiazol-2-yl)amino]-4-(2,6-difluoro-4-methoxyphenyl)pyrrolidin-2-one], with at most 40 nM.
